Measured values as given in patent US10273453B2, “Method for stem cell differentiation in vivo by delivery of morphogenes with mesoporous silica and corresponding pharmaceutical active ingredients” (Nanologica AB, priority 2010, dated 2019).

System: bNCSCs
Test: in vitro differentiation assay of bNCSCs
Type: cell-based, mouse
Conditions: bNCSC cultures
Protocol: bNCSCs were isolated in a semiclonal fashion from EGFP embryos on embryonic day (E)11, as described previously (Hjerling-Leffler J, Marmigére F, Heglind M, et al. The boundary cap: a source of neural crest stem cells that generate multiple sensory neuron subtypes. Development 2005; 132:2623-32). Briefly, the DRGs along with boundary caps were mechanically separated from the isolated spinal cord and mechano-enzymatically dissociated using Collagenase/Dispase (1 mg/ml) and DNase (0.5 mg/ml) for 30 minutes at room temperature. Cells were plated at 0.5-1×10^5 cells/cm^2 in N2 medium containing B27 (Gibco, Grand Island, N.Y., www.invitrogen.com) as well as EGF and basic fibroblast growth factor (R&D Systems, Minneapolis, www.rndsystems.com; 20 ng/ml, respectively). […]
The AMS were added to the cultures and the time-window for their presence before dissolving in the culture medium was established. We also analyzed their contact with the stem cells. […] After staining 10 photographs were taken from each slide and the ratios of neurons and glial cells were calculated in all types of experiments. We also calculated the neurite length per cell as a measure of the level of neuronal differentiation (Kozlova E N. Differentiation and migration of astrocytes in the spinal cord following dorsal root injury in the adult rat. Eur J Neurosci 2003; 17:782-90).

SMILES: CC1=C(/C=C/C(C)=C/C=C/C(C)=C/C(=O)O)C(C)(C)CCC1 [RA, retinoic acid]
- differentiation of neurons based on neurite lengths, increase compared to non-treated neurospheres: up to 37%
- neuron/glia ratio, increase compared to neurospheres-alone: 3.4 times
